Reference: ChEMBL document CHEMBL1153452, “Synthesis and in vitro affinities of various MDL 100907 derivatives as potential 18F-radioligands for 5-HT2A receptor imaging with PET” (Bioorg Med Chem, 2009)

Tests used:
physchem = conditions: Soerensen buffer
[1] = target: T1, 5-hydroxytryptamine receptor 2A (Rattus norvegicus, UniProt P14842); test: biochemical
[2] = target: 5-hydroxytryptamine receptor 5A (Homo sapiens, UniProt P47898)
[3] = target: 5-hydroxytryptamine receptor 2B (Homo sapiens, UniProt P41595)
[4] = target: 5-hydroxytryptamine receptor 6 (Homo sapiens, UniProt P50406)
5-hydroxytryptamine receptor 6, sequence (P50406 whole entry): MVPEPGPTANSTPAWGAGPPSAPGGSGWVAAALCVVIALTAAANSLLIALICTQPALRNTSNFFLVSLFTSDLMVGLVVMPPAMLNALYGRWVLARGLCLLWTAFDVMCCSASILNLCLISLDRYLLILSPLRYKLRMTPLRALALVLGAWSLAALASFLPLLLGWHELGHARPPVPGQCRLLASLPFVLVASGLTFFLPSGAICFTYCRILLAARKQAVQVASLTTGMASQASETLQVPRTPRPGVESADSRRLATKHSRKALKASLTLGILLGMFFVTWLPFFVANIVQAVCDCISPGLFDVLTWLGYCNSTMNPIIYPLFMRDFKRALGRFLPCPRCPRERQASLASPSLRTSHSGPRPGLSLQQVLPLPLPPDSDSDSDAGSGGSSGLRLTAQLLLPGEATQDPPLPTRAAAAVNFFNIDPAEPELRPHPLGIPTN

[5] = target: 5-hydroxytryptamine receptor 1D (Homo sapiens, UniProt P28221)
5-hydroxytryptamine receptor 1D, sequence (P28221 whole entry): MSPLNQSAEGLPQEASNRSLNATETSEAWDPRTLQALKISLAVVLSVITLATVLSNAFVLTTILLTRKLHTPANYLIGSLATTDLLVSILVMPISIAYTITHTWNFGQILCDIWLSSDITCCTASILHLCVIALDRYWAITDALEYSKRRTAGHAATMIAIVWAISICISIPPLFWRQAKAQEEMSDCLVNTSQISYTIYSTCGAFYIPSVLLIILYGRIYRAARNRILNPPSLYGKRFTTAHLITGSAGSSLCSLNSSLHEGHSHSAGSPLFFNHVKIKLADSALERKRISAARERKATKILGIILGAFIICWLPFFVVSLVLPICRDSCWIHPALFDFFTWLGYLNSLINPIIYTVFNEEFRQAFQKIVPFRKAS

D(4) dopamine receptor = D(4) dopamine receptor (Homo sapiens, UniProt P21917)
D(4) dopamine receptor, sequence (P21917 whole entry): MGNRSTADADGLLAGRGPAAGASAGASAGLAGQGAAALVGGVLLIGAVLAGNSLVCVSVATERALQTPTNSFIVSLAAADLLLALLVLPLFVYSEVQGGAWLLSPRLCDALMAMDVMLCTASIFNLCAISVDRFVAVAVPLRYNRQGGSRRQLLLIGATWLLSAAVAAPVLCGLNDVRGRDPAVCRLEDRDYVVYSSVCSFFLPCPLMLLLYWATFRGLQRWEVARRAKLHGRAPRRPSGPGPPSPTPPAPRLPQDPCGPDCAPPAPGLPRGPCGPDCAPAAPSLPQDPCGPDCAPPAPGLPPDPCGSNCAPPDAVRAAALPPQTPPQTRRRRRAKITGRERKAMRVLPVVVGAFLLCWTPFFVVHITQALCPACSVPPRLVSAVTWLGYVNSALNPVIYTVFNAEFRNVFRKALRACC

[6] = target: Sodium-dependent dopamine transporter (Homo sapiens, UniProt Q01959)
Sodium-dependent dopamine transporter, sequence (Q01959 whole entry): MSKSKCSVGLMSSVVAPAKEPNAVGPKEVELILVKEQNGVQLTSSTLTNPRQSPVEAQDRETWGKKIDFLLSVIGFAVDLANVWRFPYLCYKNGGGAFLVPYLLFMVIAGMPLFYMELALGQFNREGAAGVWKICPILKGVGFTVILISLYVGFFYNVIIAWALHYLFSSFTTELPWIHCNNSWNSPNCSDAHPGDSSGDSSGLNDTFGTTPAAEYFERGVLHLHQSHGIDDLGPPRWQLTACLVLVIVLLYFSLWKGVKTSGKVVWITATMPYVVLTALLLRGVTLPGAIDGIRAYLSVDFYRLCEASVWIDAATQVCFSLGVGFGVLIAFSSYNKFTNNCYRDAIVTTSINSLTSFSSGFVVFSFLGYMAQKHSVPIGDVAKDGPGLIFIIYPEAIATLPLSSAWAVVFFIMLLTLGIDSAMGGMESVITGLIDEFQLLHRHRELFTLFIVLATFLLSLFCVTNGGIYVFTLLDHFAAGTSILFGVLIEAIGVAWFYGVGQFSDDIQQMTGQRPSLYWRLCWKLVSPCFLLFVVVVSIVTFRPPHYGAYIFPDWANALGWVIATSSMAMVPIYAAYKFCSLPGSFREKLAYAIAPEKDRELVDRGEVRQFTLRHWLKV

[7] = target: Alpha-1A adrenergic receptor (Homo sapiens, UniProt P35348)
[8] = target: T2, Alpha-1B adrenergic receptor (Homo sapiens, UniProt P35368)
T2 sequence (P35368 whole entry): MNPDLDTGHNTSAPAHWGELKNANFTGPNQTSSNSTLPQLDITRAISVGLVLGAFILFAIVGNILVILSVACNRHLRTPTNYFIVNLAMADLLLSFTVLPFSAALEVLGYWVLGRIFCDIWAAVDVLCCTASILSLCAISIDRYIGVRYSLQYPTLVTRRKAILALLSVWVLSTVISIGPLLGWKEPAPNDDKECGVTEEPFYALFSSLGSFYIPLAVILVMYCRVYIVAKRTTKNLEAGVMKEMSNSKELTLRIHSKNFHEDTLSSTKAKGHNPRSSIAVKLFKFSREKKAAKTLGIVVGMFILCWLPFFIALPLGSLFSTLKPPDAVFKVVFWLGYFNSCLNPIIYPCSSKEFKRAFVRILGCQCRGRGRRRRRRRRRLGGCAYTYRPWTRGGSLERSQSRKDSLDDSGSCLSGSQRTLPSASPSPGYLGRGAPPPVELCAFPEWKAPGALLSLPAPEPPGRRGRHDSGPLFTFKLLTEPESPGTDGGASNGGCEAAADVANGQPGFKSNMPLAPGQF

Histamine H3 receptor = Histamine H3 receptor (Homo sapiens, UniProt Q9Y5N1)
Histamine H3 receptor, sequence (Q9Y5N1 whole entry): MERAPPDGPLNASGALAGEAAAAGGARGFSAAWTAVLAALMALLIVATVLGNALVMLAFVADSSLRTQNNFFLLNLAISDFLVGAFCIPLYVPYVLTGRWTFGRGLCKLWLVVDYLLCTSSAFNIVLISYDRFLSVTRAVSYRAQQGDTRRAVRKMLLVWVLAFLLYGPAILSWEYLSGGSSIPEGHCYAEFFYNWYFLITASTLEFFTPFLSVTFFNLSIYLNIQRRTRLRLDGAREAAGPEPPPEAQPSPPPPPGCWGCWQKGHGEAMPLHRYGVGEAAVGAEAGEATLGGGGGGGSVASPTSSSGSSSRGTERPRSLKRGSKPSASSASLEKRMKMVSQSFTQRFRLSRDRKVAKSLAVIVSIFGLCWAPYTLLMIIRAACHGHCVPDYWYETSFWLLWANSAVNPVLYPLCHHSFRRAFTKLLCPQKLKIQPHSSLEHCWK

[9] = target: T3, Alpha-2A adrenergic receptor (Homo sapiens, UniProt P08913)
T3 sequence (P08913 whole entry): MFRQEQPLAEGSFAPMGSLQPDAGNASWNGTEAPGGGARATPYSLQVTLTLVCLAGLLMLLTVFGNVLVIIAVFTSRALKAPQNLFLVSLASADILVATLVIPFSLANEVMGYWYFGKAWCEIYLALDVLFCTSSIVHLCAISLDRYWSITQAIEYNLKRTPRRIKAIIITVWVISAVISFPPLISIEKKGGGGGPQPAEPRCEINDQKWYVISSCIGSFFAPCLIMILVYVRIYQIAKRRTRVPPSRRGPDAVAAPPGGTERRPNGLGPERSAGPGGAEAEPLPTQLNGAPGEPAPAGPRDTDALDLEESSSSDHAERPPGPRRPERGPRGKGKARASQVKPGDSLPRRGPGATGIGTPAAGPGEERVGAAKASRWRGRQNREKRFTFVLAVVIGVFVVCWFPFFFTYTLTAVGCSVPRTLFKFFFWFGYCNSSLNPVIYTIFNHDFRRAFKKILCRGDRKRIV

[10] = target: Sodium-dependent serotonin transporter (Homo sapiens, UniProt P31645)
Sodium-dependent serotonin transporter, sequence (P31645 whole entry): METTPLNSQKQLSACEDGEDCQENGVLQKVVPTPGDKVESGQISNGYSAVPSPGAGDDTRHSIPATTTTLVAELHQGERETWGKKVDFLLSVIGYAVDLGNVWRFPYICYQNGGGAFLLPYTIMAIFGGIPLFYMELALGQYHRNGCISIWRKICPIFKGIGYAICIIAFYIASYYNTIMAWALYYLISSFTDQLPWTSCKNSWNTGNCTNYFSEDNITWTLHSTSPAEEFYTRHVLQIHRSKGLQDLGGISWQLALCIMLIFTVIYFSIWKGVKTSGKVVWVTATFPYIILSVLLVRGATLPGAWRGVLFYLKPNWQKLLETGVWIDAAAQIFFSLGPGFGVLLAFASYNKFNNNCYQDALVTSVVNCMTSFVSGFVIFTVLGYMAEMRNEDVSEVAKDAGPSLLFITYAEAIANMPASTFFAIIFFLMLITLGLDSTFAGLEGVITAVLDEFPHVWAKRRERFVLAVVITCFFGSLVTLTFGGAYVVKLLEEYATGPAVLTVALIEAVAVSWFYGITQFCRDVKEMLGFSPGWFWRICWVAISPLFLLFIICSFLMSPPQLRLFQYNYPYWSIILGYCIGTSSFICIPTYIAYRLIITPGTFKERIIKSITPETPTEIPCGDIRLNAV

[11] = target: Beta-3 adrenergic receptor (Homo sapiens, UniProt P13945)
Beta-3 adrenergic receptor, sequence (P13945 whole entry): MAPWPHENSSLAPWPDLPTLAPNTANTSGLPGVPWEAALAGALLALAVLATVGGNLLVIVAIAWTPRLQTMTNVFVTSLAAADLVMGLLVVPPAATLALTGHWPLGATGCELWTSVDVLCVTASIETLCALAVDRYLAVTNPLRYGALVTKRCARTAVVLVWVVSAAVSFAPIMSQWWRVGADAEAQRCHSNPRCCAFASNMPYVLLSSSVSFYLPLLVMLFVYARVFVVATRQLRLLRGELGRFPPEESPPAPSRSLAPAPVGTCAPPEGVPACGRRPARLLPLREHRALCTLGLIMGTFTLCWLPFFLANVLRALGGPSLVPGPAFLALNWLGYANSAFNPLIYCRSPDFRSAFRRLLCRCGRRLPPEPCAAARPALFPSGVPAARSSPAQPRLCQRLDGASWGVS

Histamine H1 receptor = Histamine H1 receptor (Homo sapiens, UniProt P35367)
Histamine H1 receptor, sequence (P35367 whole entry): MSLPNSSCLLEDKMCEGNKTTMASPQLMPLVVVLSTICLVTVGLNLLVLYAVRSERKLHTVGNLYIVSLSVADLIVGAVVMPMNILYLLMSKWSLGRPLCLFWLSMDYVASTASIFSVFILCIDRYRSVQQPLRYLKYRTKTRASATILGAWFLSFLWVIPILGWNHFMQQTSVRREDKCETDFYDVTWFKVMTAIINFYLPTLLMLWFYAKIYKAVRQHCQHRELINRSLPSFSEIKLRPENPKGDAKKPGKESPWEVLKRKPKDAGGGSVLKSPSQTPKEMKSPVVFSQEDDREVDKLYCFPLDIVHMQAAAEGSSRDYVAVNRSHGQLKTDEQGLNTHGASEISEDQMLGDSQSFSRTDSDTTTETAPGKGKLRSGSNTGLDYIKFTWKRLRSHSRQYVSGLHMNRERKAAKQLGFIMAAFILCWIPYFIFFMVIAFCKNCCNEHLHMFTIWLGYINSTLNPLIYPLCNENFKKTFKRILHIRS

D(2) dopamine receptor [12] = target: T4, D(2) dopamine receptor (Homo sapiens, UniProt P14416)
Mu-type opioid receptor = Mu-type opioid receptor (Homo sapiens, UniProt P35372)
D(1A) dopamine receptor = D(1A) dopamine receptor (Homo sapiens, UniProt P21728)
D(1A) dopamine receptor, sequence (P21728 whole entry): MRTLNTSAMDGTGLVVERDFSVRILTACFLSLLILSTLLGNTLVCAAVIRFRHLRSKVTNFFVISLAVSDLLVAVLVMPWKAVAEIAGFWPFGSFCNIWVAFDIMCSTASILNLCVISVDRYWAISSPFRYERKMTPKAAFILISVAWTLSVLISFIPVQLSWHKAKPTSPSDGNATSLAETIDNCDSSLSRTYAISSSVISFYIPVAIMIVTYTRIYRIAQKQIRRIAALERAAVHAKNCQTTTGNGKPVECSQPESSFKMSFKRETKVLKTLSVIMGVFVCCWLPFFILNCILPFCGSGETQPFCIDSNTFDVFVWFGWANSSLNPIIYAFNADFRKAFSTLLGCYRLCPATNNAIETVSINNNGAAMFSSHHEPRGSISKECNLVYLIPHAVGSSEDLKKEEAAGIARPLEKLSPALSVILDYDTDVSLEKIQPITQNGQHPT

Histamine H2 receptor = Histamine H2 receptor (Homo sapiens, UniProt P25021)
D(1B) dopamine receptor = D(1B) dopamine receptor (Homo sapiens, UniProt P21918)
[13] = target: Alpha-2C adrenergic receptor (Homo sapiens, UniProt P18825)
[14] = target: T1, 5-hydroxytryptamine receptor 2A; test: Displacement of [3H]altanserine from rat cortical membrane 5HT2A receptor
D(2) dopamine receptor [15] = target: T4, D(2) dopamine receptor; test: Binding affinity to dopamine D2 receptor by competitive binding experiment

T1 sequence (P14842 whole entry): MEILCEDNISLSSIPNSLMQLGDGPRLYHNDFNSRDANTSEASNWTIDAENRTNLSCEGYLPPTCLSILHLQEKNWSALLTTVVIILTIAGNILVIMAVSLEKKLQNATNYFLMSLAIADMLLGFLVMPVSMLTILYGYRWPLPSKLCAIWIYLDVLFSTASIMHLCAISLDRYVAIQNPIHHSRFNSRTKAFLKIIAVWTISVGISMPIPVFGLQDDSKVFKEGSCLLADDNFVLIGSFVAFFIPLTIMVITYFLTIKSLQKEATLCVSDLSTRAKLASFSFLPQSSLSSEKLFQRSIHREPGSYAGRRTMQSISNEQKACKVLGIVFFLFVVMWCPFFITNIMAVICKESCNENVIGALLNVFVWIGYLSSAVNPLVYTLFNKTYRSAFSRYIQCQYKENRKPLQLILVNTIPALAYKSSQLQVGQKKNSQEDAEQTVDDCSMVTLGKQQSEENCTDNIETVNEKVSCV

SMILES | logP (physchem) | Ki [1] [nM] | Ki [2] [nM] | Ki [3] [nM] | Ki [4] [nM] | Ki [5] [nM] | other results
COc1c(OCCF)cccc1C(O)C1CCN(CCc2ccccc2)CC1 (configuration not stated) | 2.92 | 1.63 |  |  |  |  | 
COc1c(O)cccc1C(O)C1CCN(CCc2ccc(F)cc2)CC1 (configuration not stated) | 2.27 | 1.24 |  |  |  |  | 
COc1ccc(CCN2CCC(C(=O)c3cccc(OCCF)c3OC)CC2)cc1 | 3.02 | 153 | > 10000 | 1970 | > 10000 | 1440 | 
COc1c(OCCF)cccc1C(O)C1CCN(CCc2ccc(N)cc2)CC1 (configuration not stated) |  | 2.06 |  |  |  |  | 
COc1c(O)cccc1C(O)C1CCN(CCc2ccc([N+](=O)[O-])cc2)CC1 (configuration not stated) | 1.9 |  |  |  |  |  | 
COc1c(OCCF)cccc1[C@H](O)C1CCN(CCc2ccc(F)cc2)CC1 | 2.8 | 0.72 | 6810 | 320 | 3840 | 1060 | Ki (D(4) dopamine receptor): 442 nM; Ki [6]: > 10000 nM; Ki [7]: 335 nM; Ki [8]: 500 nM; Ki (Histamine H3 receptor): > 10000 nM; Ki [9]: > 10000 nM; Ki [10]: 2210 nM; Ki [11]: > 10000 nM; Ki (Histamine H1 receptor): 509 nM; Ki (D(2) dopamine receptor [12]): 2690 nM; Ki (Mu-type opioid receptor): > 10000 nM; Ki (D(1A) dopamine receptor): 3830 nM; Ki (Histamine H2 receptor): 2430 nM; Ki (D(1B) dopamine receptor): 7420 nM
COc1cccc(C(O)C2CCN(Cc3ccc(F)cc3)CC2)c1OC (configuration not stated) |  | > 1000 |  |  |  |  | 
COc1c(O)cccc1C(=O)C1CCN(CCc2ccc(F)cc2)CC1 |  | 1.34 |  |  |  |  | 
COc1c(OCCF)cccc1C(=O)C1CCN(CCc2ccc(F)cc2)CC1 | 3.08 | 3.23 | 1580 | 960 | > 10000 | 713 | Ki (D(4) dopamine receptor): 174 nM; Ki [6]: > 10000 nM; Ki [7]: 146 nM; Ki [8]: 550 nM; Ki [13]: 333 nM; Ki (Histamine H3 receptor): > 10000 nM; Ki [9]: 863 nM; Ki [10]: 3090 nM; Ki [11]: > 10000 nM; Ki (Histamine H1 receptor): 944 nM; Ki (D(2) dopamine receptor [12]): 3830 nM; Ki (Mu-type opioid receptor): > 10000 nM; Ki (D(1A) dopamine receptor): 1410 nM; Ki (Histamine H2 receptor): 1760 nM; Ki (D(1B) dopamine receptor): 7400 nM
COc1c(OCCF)cccc1C(O)C1CCN(CCc2ccc(F)cc2)CC1 (configuration not stated) | 2.8 |  | > 10000 | 299 | 3890 | 706 | Ki (D(4) dopamine receptor): 544 nM; Ki [6]: > 10000 nM; Ki [8]: 325 nM; Ki [13]: 148 nM; Ki (Histamine H3 receptor): > 10000 nM; Ki [9]: > 10000 nM; Ki [10]: 3520 nM; Ki [11]: > 10000 nM; Ki (Histamine H1 receptor): 374 nM; Ki (D(2) dopamine receptor [12]): > 10000 nM; Ki (Mu-type opioid receptor): > 10000 nM; Ki (D(1A) dopamine receptor): 899 nM; Ki (Histamine H2 receptor): 3180 nM
COc1ccc(CCN2CCC(C(O)c3cccc(OC)c3OC)CC2)cc1 (configuration not stated) |  | 55 |  |  |  |  | 
COc1c(O)cccc1[C@H](O)C1CCN(CCc2ccc(F)cc2)CC1 |  | 0.25 |  |  |  |  | 
COc1cccc(C(O)C2CCN(CCc3ccc([N+](=O)[O-])cc3)CC2)c1OC (configuration not stated) |  | 90 |  |  |  |  | 
O=C(c1ccc(F)cc1)C1CCN(CCn2c(=S)[nH]c3ccccc3c2=O)CC1 [ALTANSERIN] | 2.15 | 0.72 |  |  |  |  | Ki [14]: 0.13 nM; Ki (D(2) dopamine receptor [15]): 62 nM
COc1cccc(C(O)C2CCN(CCc3ccc(C)cc3)CC2)c1OC (configuration not stated) |  | 0.31 |  |  |  |  | 
COc1cccc([C@H](O)C2CCN(CCc3ccc(F)cc3)CC2)c1OC [VOLINANSERIN] | 2.98 |  |  |  |  |  | 
COc1ccc(CCN2CCC(C(O)c3cccc(OCCF)c3OC)CC2)cc1 (configuration not stated) | 2.72 | 59 | > 10000 | 2750 | > 10000 | > 10000 | 
COc1c(OCCF)cccc1C(O)C1CCN(CCc2ccc([N+](=O)[O-])cc2)CC1 (configuration not stated) | 2.37 | 26 | > 10000 | 1840 | > 10000 | 3420 | 
COc1c(OCCF)cccc1C(O)C1CCN(C(=O)Cc2ccccc2)CC1 (configuration not stated) | 1.57 | 1990 |  |  |  |  | 
COc1c(OCCF)cccc1C(=O)C1CCN(CCc2ccc([N+](=O)[O-])cc2)CC1 | 2.71 | 118 | > 10000 | 1050 | > 10000 | 1830 | 
